This note sets out measurements from paper PMC12655445, “In Vitro and In Vivo Effects of Resveratrol on Rat Hepatic CYP1A2” (Pharmaceuticals, 2025).

Data set [1] deals with T1, rat liver microsomal CYP1A2 (Rattus norvegicus, UniProt P04799).
T1 construct: rat liver microsomes
T1 sequence (P04799 2-513): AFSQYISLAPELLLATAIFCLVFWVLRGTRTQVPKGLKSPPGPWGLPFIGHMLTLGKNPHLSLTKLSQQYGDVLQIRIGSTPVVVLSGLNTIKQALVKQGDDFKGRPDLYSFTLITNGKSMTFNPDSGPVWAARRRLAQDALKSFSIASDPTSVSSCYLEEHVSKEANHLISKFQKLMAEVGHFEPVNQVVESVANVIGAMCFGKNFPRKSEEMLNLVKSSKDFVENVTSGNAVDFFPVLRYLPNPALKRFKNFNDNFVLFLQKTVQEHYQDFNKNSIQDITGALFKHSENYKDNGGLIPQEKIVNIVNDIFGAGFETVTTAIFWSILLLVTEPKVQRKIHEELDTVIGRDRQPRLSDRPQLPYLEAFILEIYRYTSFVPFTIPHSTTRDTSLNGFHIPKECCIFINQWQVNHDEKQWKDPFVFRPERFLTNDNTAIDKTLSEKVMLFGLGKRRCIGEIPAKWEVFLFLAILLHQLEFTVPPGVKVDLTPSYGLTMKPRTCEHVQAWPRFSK
Kind of data set: MROD fluorescence assay in rat liver microsomes, inhibition kinetics (IC50 […]). Format: biochemical. A general note: Microsomes from liver hold many membrane-bound enzymes, among them those of drug oxidation.

Substrate in data set [2]: COc1ccc2nc3ccc(=O)cc-3oc2c1
Kind of data set: MROD kinetics with recombinant CYP1A2 membranes; value is Km. It counts as biochemical, Homo sapiens. Particulars: heme; NADPH.

Usually Ki stands for the dissociation constant of the complex between target and ligand, obtained from inhibition or displacement. Read a low Ki as higher affinity. As for `Oc1ccc(/C=C/c2cc(O)cc(O)c2)cc1` [RSV, trans-3,4′,5-trihydroxystilbene], the inhibitory constant (Ki) in data set [1] stood at 49.1 µM. That is a double-digit micromolar value.

B1: human recombinant CYP1A2 (Homo sapiens) (protein)
chain: ALSQSVPFSATELLLASAIFCLVFWVLKGLRPRVPKGLKSPPEPWGWPLLGHVLTLGKNPHLALSRMSQRYGDVLQIRIGSTPVLVLSRLDTIRQALVRQGDDFKGRPDLYTSTLITDGQSLTFSTDSGPVWAARRRLAQNALNTFSIASDPASSSSCYLEEHVSKEAKALISRLQELMAGPGHFDPYNQVVVSVANVIGAMCFGQHFPESSDEMLSLVKNTHEFVETASSGNPLDFFPILRYLPNPALQRFKAFNQRFLWFLQKTVQEHYQDFDKNSVRDITGALFKHSKKGPRASGNLIPQEKIVNLVNDIFGAGFDTVTTAISWSLMYLVTKPEIQRKIQKELDTVIGRERRPRLSDRPQLPYLEAFILETFRHSSFLPFTIPHSTTRDTTLNGFYIPKKCCVFVNQWQVNHDPELWEDPSEFRPERFLTADGTAINKPLSEKMMLFGMGKRRCIGEVLAKWEIFLFLAILLQQLEFSVPPGVKVDLTPIYGLTMKHARCEHVQARLRFSIN
notes: human CYP1A2 expressed with NADPH P450 reductase in Escherichia coli DH5α; bacterial membranes; with NADPH P450 reductase
One may read the Km as the concentration of substrate that gives half-maximal velocity. With B1, in data set [2], the Km was found to be 1.67 µM.
